Experimental data reported in US8003649B2 (AstraZeneca AB, priority 2007, dated 2011).

biological target: T1, Androgen Receptor (AR) (Homo sapiens, UniProt P10275, T878A); assay: LNCaP Androgen Receptor Down-regulation Cell Assay (immunofluorescence end point); format: cell-based; settings: LNCaP prostate carcinoma cells, compound incubation 20-22 hours, 50% reduction of the AR signal; read-out: Androgen Receptor Down-regulation Assay (a) IC50/μM
T1 construct: cell based immuno-fluorescence assay using the LNCaP prostate epithelial cell line; endogenous in cells; host or cells: LNCaP clone FGC (ATCC CRL-1740)
T1 sequence (P10275 1-920 T878A): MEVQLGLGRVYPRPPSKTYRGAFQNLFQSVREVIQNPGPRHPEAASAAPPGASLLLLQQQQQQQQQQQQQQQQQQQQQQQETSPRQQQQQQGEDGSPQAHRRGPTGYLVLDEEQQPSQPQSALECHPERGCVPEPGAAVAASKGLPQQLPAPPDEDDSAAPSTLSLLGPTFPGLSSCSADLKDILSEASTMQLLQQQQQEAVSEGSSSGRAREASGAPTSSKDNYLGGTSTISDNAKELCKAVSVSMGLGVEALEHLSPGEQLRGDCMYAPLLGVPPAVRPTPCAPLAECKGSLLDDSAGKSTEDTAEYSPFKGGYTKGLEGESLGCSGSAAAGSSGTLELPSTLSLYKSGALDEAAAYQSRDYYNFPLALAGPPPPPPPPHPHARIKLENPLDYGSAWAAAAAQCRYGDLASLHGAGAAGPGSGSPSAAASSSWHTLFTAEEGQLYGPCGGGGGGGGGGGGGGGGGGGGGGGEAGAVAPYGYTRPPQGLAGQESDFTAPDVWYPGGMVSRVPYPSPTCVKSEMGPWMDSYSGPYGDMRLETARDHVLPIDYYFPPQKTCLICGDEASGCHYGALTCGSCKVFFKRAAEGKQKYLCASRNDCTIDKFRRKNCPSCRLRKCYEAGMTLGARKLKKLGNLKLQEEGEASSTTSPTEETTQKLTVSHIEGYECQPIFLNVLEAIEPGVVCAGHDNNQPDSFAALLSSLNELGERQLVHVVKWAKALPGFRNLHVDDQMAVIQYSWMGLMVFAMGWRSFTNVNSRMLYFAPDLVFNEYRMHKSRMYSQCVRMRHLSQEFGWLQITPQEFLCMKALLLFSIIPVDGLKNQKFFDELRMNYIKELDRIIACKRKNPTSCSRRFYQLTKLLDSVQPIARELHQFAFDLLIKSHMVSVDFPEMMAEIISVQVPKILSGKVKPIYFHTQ
Procedure, shortened: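 LNCaP cells in medium with 5% charcoal-stripped FBS were plated overnight, then treated with a compound dilution series for 20-22 h at 37° C. After fixation, permeabilisation and immunostaining, AR-associated green fluorescence was quantified by laser-scanning microplate cytometry; AR down-regulation expressed as IC50 from fitted dose-response curves.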

Compound	DC50 [µM]
O=C(CN1CCCC1)Nc1cccc(C2CCN(c3ccc4nnc(C(F)(F)F)n4n3)CC2)c1 [Example 712]	3
O=C(CN1CCOCC1)Nc1cccc(C2CCN(c3ccc4nnc(C(F)(F)F)n4n3)CC2)c1 [Example 713]	0.81
FC(F)(F)c1nnc2ccc(N3CCC(Oc4ncc(Cl)cn4)CC3)nn12 [Example 714]	> 9.9
FC(F)(F)c1nnc2ccc(N3CCC(Oc4cccc(Cl)n4)CC3)nn12 [Example 716]	0.81
FC(F)(F)c1nnc2ccc(N3CCC(Oc4cccnc4Br)CC3)nn12 [Example 717]	2.9
FC(F)(F)c1nnc2ccc(N3CCC(Oc4cccnc4)CC3)nn12 [Example 718]	3.6
FC(F)(F)c1ccc(OC2CCN(c3ccc4nnc(C(F)(F)F)n4n3)CC2)nc1 [Example 719]	3.5
FC(F)(F)c1nnc2ccc(N3CCC(Oc4ccc(Cl)nc4)CC3)nn12 [Example 720]	2.7
FC(F)(F)c1nnc2ccc(N3CCC(Oc4ccc(Br)cn4)CC3)nn12 [Example 721]	2.9
FC(F)(F)c1nnc2ccc(N3CCC(Oc4cncc(Br)c4)CC3)nn12 [Example 722]	4.1
FC(F)(F)c1nnc2ccc(N3CCC(Oc4ncccc4Br)CC3)nn12 [Example 723]	0.9
FC(F)(F)c1nnc2ccc(N3CCC(Oc4ccc(Cl)cc4)CC3)nn12 [Example 724]	0.69
CN(C)CCCOc1ccc(C2CCN(c3ccc4nnc(C(F)(F)F)n4n3)CC2)cc1 [Example 726]	1.4
FC(F)(F)c1nnc2ccc(N3CCC(c4ccc(OCCCN5CCNCC5)cc4)CC3)nn12 [Example 728, 6-[4-[4-(3-piperazin-1-ylpropoxy)phenyl]piperidin-1-yl]-3-(trifluoromethyl)[1,2,4]triazolo[4,3-b]pyridazine]	1.5
Cc1cc(COc2ccc(C3CCN(c4ccc5nnc(C(F)(F)F)n5n4)CC3)cc2)no1 [Example 729]	0.92
CN(C)CCOc1ccc(C2CCN(c3ccc4nnc(C(F)(F)F)n4n3)CC2)cc1 [Example 730]	0.72
FC(F)(F)c1nnc2ccc(N3CCC(c4ccc(OCCN5CCOCC5)cc4)CC3)nn12 [Example 731]	1.1
CN1CCN(CCCOc2ccc(C3CCN(c4ccc5nnc(C(F)(F)F)n5n4)CC3)cc2)CC1 [Example 732]	1.1
FC(F)(F)c1nnc2ccc(N3CCC(c4ccc(OCc5ccon5)cc4)CC3)nn12 [Example 733]	0.6

Compound	DC50 [µM]
FC(F)(F)c1nnc2ccc(N3CCC(c4ccc(OCc5cnco5)cc4)CC3)nn12 [Example 734]	2.5
CN1CCN(CCOc2ccc(C3CCN(c4ccc5nnc(C(F)(F)F)n5n4)CC3)cc2)CC1 [Example 735]	1.9
Cn1nccc1COc1ccc(C2CCN(c3ccc4nnc(C(F)(F)F)n4n3)CC2)cc1 [Example 736]	0.4
OCCOc1cccc(C2CCN(c3ccc4nnc(C(F)(F)F)n4n3)CC2)c1 [Example 737, 2-[3-[1-[3-(trifluoromethyl)[1,2,4]triazolo[4,3-b]pyridazin-6-yl]piperidin-4-yl]phenoxy]ethanol]	0.74
O=C(c1ccc(C2CCN(c3ccc4nnc(C(F)(F)F)n4n3)CC2)cc1)N1CC[C@@H](O)C1 [Example 738]	3.3
O=C(c1ccc(C2CCN(c3ccc4nnc(C(F)(F)F)n4n3)CC2)cc1)N1CC[C@H](O)C1 [Example 739]	3.2
O=C(c1ccc(C2CCN(c3ccc4nnc(C(F)(F)F)n4n3)CC2)cc1)N1CCC(O)CC1 [Example 740]	2
CN(CCS(C)(=O)=O)C(=O)c1ccc(C2CCN(c3ccc4nnc(C(F)(F)F)n4n3)CC2)cc1 [Example 741]	2.2
CN1CCN(C(=O)c2ccc(N3CCN(c4ccc5nnc(C(F)(F)F)n5n4)CC3)cc2)CC1 [Example 744]	9.6
COCCNC(=O)c1ccc(N2CCN(c3ccc4nnc(C(F)(F)F)n4n3)CC2)cc1 [Example 745]	3.4
CN(C)C(=O)c1ccc(N2CCN(c3ccc4nnc(C(F)(F)F)n4n3)CC2)cc1 [Example 746]	3.3
O=C(c1ccc(N2CCN(c3ccc4nnc(C(F)(F)F)n4n3)CC2)cc1)N1CC[C@@H](O)C1 [Example 747]	23
O=C(c1ccc(N2CCN(c3ccc4nnc(C(F)(F)F)n4n3)CC2)cc1)N1CCCC1 [Example 748]	5.6
O=C(c1ccc(N2CCN(c3ccc4nnc(C(F)(F)F)n4n3)CC2)cc1)N1CCOCC1 [Example 749]	> 22
O=C(NCCN1CCOCC1)c1ccc(N2CCN(c3ccc4nnc(C(F)(F)F)n4n3)CC2)cc1 [Example 750]	2.6
COCCN(C)C(=O)c1ccc(N2CCN(c3ccc4nnc(C(F)(F)F)n4n3)CC2)cc1 [Example 751]	6.3
CN(CCN1CCCC1=O)C(=O)c1ccc(C2CCN(c3ccc4nnc(C(F)(F)F)n4n3)CC2)cc1 [Example 753, N-methyl-N-[2-(2-oxopyrrolidin-1-yl)ethyl]-4-[1-[3-(trifluoromethyl)[1,2,4]triazolo[4,3-b]pyridazin-6-yl]piperidin-4-yl]benzamide]	2.1
CN(CCN1CCOCC1)C(=O)c1ccc(C2CCN(c3ccc4nnc(C(F)(F)F)n4n3)CC2)cc1 [Example 754, N-methyl-N-(2-morpholin-4-ylethyl)-4-[1-[3-(trifluoromethyl)[1,2,4]triazolo[4,3-b]pyridazin-6-yl]piperidin-4-yl]benzamide]	2.5
FC(F)(F)c1nnc2ccc(N3CCN(c4ccc(OCCN5CCCC5)cc4)CC3)nn12 [Example 755]	2.2

Compound	DC50 [µM]
FC(F)(F)c1nnc2ccc(N3CCN(c4ccc(OCc5ccon5)cc4)CC3)nn12 [Example 757]	> 12
Fc1cc(Cl)cc(CN2CCN(c3ccc4nnc(C(F)(F)F)n4n3)CC2)c1 [Example 759]	3.9
Fc1cc(CN2CCN(c3ccc4nnc(C(F)(F)F)n4n3)CC2)cc(C(F)(F)F)c1 [Example 760]	> 3.1
Fc1cccc(CN2CCN(c3ccc4nnc(C(F)(F)F)n4n3)CC2)c1C(F)(F)F [Example 761]	1.5
Fc1cc(F)c(F)c(CN2CCN(c3ccc4nnc(C(F)(F)F)n4n3)CC2)c1 [Example 763]	> 9.8
Fc1ccc(F)c(CN2CCN(c3ccc4nnc(C(F)(F)F)n4n3)CC2)c1F [Example 764]	2.5
CS(=O)(=O)c1ccc(F)cc1CN1CCN(c2ccc3nnc(C(F)(F)F)n3n2)CC1 [Example 765]	8.8
Fc1ccc(CN2CCN(c3ccc4nnc(C(F)(F)F)n4n3)CC2)c(F)c1F [Example 766]	> 17
Fc1cc(CN2CCN(c3ccc4nnc(C(F)(F)F)n4n3)CC2)cc(F)c1F [Example 767]	> 12
Fc1cccc(CN2CCN(c3ccc4nnc(C(F)(F)F)n4n3)CC2)c1Cl [Example 768]	4.7
FC(F)(F)c1nnc2ccc(N3CCN(Cc4cncc(Cl)c4)CC3)nn12 [Example 770]	6.3
FC(F)(F)c1nnc2ccc(N3CCN(Cc4cncc(Br)c4)CC3)nn12 [Example 774]	8
COc1ncccc1CN1CCN(c2ccc3nnc(C(F)(F)F)n3n2)CC1 [Example 775]	6.8
Cc1ccc(CN2CCN(c3ccc4nnc(C(F)(F)F)n4n3)CC2)cn1 [Example 776]	6.9
FC(F)(F)c1ncccc1CN1CCN(c2ccc3nnc(C(F)(F)F)n3n2)CC1 [Example 777]	4.6
CS(=O)(=O)c1cc(F)cc(CN2CCN(c3ccc4nnc(C(F)(F)F)n4n3)CC2)c1 [Example 778, 6-[4-[3-fluoro-5-(methylsulfonyl)benzyl]piperazin-1-yl]-3-(trifluoromethyl)[1,2,4]triazolo[4,3-b]pyridazine]	2.6
Fc1ccc(C(F)F)c(CN2CCN(c3ccc4nnc(C(F)(F)F)n4n3)CC2)c1 [Example 779, 6-[4-[2-(difluoromethyl)-5-fluorobenzyl]piperazin-1-yl]-3-(trifluoromethyl)[1,2,4]triazolo[4,3-b]pyridazine]	0.54
Fc1ccc(C(F)F)c(CN2CCN(c3ccc4nnc(C(F)F)n4n3)CC2)c1 [Example 780, 3-(difluoromethyl)-6-[4-[2-(difluoromethyl)-5-fluorobenzyl]piperazin-1-yl][1,2,4]triazolo[4,3-b]pyridazine]	0.51
Fc1cccc(CN2CCN(c3ccc4nnc(C(F)(F)F)n4n3)CC2)c1C(F)F [Example 781, 6-[4-[2-(difluoromethyl)-3-fluorobenzyl]piperazin-1-yl]-3-(trifluoromethyl)[1,2,4]triazolo[4,3-b]pyridazine]	0.82
